# Measured values reported in patent publication US20080269332A1, “EYELASH ENHANCEMENT COMPOSITION AND METHOD OF TREATMENT” (LA CANADA VENTRURES, INC., priority 2007, published 2008).
# Tested on: eyelash growth
# Experiment: Randomized double blind clinical trial of eyelash growth, daily topical application to root of upper eyelashes for 4 weeks
# Type: in vivo, human
# Experimental: These solutions were each applied daily to the roots of the upper right and left eyelashes of the patients in a quantity of approximately 0.0164 ml. Patients applied the eyelash product daily for 4 weeks on the root of the upper eyelashes only since some of the solution used may ultimately be deposited on the lower lash interfering with the studies' parameters. Methods: 34 patients were randomly assigned to one of three different treatment groups based on a standard treatment of the upper right lash and different treatments of the upper left eye lash with varying concentrations of the active product and a placebo. Age range of the patients was 20-56; 33 female, 1 male. Three different treatment Groups were constructed based on RIGHT EYE lash treatment/LEFT EYE lash treatment and defined as Groups A/B, A/D and A/C). All patients used Solution A on the right eye lash which is the “Control Group”, with Solutions B, D, and C used on the left eye lash of these same patients. Group A/B (14 patients) used Solution A on the upper right lash and Solution B on the upper left lash. Group A/D (9 patients) used Solution A on the upper right lash and Solution D on the upper left lash. Group A/C (11 patients) used Solution A on the upper right lash and the placebo, Solution C, on the upper left lash. After four (4) weeks upper RIGHT eyelash measurement were made for all 34 randomized patients. The upper LEFT eyelash measurement were made for the 14 patients using Solution B, for the 9 patients using Solution D and the 11 patients using Solution C (the placebo). Eyelash measurements for both the upper right and left eyelashes were taken in the medial, middle and lateral locations on both upper and lower eyelids using micocalipers and measured to 0.1 mm. The mean of the six measurements were then used to calculate the eyelash length for each eye. Measurements were taken at the initiation of the study to use as standard base. The technicians performing the measurements were blinded to the patient group assignment. A paired two-tailed Student's t-Test was used for statistical analysis. All patients enrolled into the study underwent a standard informed consent procedure.
structure (smiles),measurement,setting,value
"CCNC(=O)CCC/C=C\C[C@@H]1[C@@H](/C=C/[C@@H](O)COc2ccccc2)[C@H](O)C[C@@H]1O [active agent, (z)-7-((1R,2R,3R,5S)-3,5-dihydroxy-2-((R,E)-3-hydroxy-4-phenoxybut-1-enyl)cyclopentyl)-N-ethylhept-5-enamide]",increase lash growth relative to placebo (growth with active / growth with placebo ×100),"4 weeks of daily use, placebo Solution C growth 0.63 mm",268.25%
same,patients subjectively reporting an increase in the thickness or fullness of their eyelashes,"9/34 patients, 4 weeks of daily use",26%
same,patients reporting mild or minimal irritation,"19/34 patients, typically resolved after several days of use",56%
same,patients reporting moderate irritation and discontinuing,"34 patients, daily topical use",One patient reported moderate irritation and discontinued the product
